Assays:
Format in all cases: in vivo
[1] = tested on: morningglory (Ipomoea hederacea); experiment: Test C preemergence; conditions: for Plant response rating (0 to 100), Morningglory: visual evaluation after 12 to 14 days
Source text: (§1) Seeds of plant species selected from bermudagrass (Cynodon dactylon), Surinam grass (Brachiaria decumbens), cocklebur (Xanthium strumarium), corn (Zea mays), crabgrass (Digitaria sanguinalis), woolly cupgrass (Eriochloa villosa), giant foxtail (Setaria faberii), goosegrass (Eleusine indica), johnsongrass (Sorghum halepense), kochia (Kochia scoparia), lambsquarters (Chenopodium album), morningglory (Ipomoea hederacea), yellow nutsedge (Cyperus esculentus), pigweed (Amaranthus retroflexus), common ragweed (Ambrosia elatior), soybean (Glycine max) and velvetleaf (Abutilon theophrasti) were planted and treated preemergence with test chemicals formulated in a non-phytotoxic solvent mixture which included a surfactant.
(§2) At the same time, plants selected from these crop and weed species and also winter barley (Hordeum vulgare), blackgrass (Alopecurus myosuroides), canary grass (Phalaris minor), chickweed (Stellaria media), downy brome (Bromus tectorum), green foxtail (Setaria viridis), Italian ryegrass (Lolium multiflorum), wheat (Triticum aestivum), wild oat (Avena fatua) and windgrass (Apera spica-venti) were treated with postemergence applications of some of the test chemicals formulated in the same manner. Plants ranged in height from 2 to 18 cm (1- to 4-leaf stage) for postemergence treatments. Plant species in the flooded paddy test consisted of rice (Oryza saliva), smallflower flatsedge (Cyperus difformis), duck salad (Heteranthera limosa) and barnyardgrass (Echinochloa crus-galli) grown to the 2-leaf stage for testing. Treated plants and controls were maintained in a greenhouse for 12 to 14 days, after which time all species were compared to controls and visually evaluated. Plant response ratings, summarized in Table C, are based on a scale of 0 to 100 where 0 is no effect and 100 is complete control. A dash (-) response means no test result.

[2] = tested on: crabgrass (Digitaria sanguinalis); experiment: Test C preemergence; conditions: for Plant response rating (0 to 100), Crabgrass: visual evaluation after 12 to 14 days
Source text: as §1, §2

[3] = tested on: common ragweed (Ambrosia elatior); experiment: Test C preemergence; conditions: for Plant response rating (0 to 100), Ragweed, Common: visual evaluation after 12 to 14 days
Source text: as §1, §2

[4] = tested on: giant foxtail (Setaria faberii); experiment: Test C preemergence; conditions: for Plant response rating (0 to 100), Foxtail, Giant: visual evaluation after 12 to 14 days
Source text: as §1, §2

[5] = tested on: cocklebur (Xanthium strumarium); experiment: Test C preemergence; conditions: for Plant response rating (0 to 100), Cocklebur: visual evaluation after 12 to 14 days
Source text: as §1, §2

[6] = tested on: goosegrass (Eleusine indica); experiment: Test C preemergence; conditions: for Plant response rating (0 to 100), Goosegrass: visual evaluation after 12 to 14 days
Source text: as §1, §2

[7] = tested on: bermudagrass (Cynodon dactylon); experiment: Test C preemergence; conditions: for Plant response rating (0 to 100 where 0 is no effect and 100 is complete control), Bermudagrass: visual evaluation after 12 to 14 days
Source text: as §1, §2

Sunflower [8] = experiment: Test C preemergence
Source text: as §1, §2

[9] = tested on: velvetleaf (Abutilon theophrasti); experiment: Test C preemergence; conditions: for Plant response rating (0 to 100), Velvetleaf: visual evaluation after 12 to 14 days
Source text: as §1, §2

[10] = tested on: Surinam grass (Brachiaria decumbens); experiment: Test C preemergence; conditions: for Plant response rating (0 to 100), Surinam grass: visual evaluation after 12 to 14 days
Source text: as §1, §2

Sunflower [11] = experiment: Test C preemergence; conditions: visual evaluation after 12 to 14 days
[12] = tested on: lambsquarters (Chenopodium album); experiment: Test B preemergence
In short: (§3)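 Greenhouse test: chemicals are formulated in a surfactant-containing non-phytotoxic solvent and applied either preemergence to planted seeds or postemergence to plants 2 to 18 cm tall. Response is rated visually versus controls after 13 to 15 days, 0 meaning no effect and 100 complete control.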

[13] = tested on: crabgrass (Digitaria sanguinalis); experiment: Test B preemergence
In short: as §3

[14] = tested on: barnyardgrass (Echinochloa crus-galli); experiment: Test B preemergence
In short: as §3

[15] = tested on: giant foxtail (Setaria faberii); experiment: Test B preemergence
In short: as §3

rice (Oryza saliva) = experiment: Test B preemergence
In short: as §3

[16] = tested on: cocklebur (Xanthium strumarium); experiment: Test B preemergence
In short: as §3

corn (Zea mays) = experiment: Test B preemergence
In short: as §3

[17] = tested on: velvetleaf (Abutilon theophrasti); experiment: Test B preemergence
In short: as §3

[18] = tested on: morning glory (Ipomoea hederacea); experiment: Test B preemergence
In short: as §3

[19] = tested on: pigweed (Amaranthus retroflexus); experiment: Test B preemergence
In short: as §3

[20] = tested on: Surinam grass (Brachiaria decumbens); experiment: Test B preemergence
In short: as §3

[21] = Rate 62 g/ha, scale 0 to 100, 0 no effect, 100 complete control
[22] = Rate 125 g/ha, scale 0 to 100, 0 no effect, 100 complete control
[23] = preemergence, Rate 250 g/ha, scale 0 to 100, 0 no effect, 100 complete control
[24] = Preemergence, Rate 500 g/ha, scale 0 to 100, 0 no effect, 100 complete control
[25] = preemergence, Rate 125 g/ha, scale of 0 to 100 where 0 is no effect and 100 is complete control, 13 to 15 days
[26] = Preemergence, Rate 500 g/ha, scale 0 to 100
[27] = preemergence, Rate 125 g/ha, scale 0 to 100, 0 no effect, 100 complete control

`CCC(C)c1ccn(C2CCN(c3cccc(OC(C)C)c3)C2=O)n1` (stereo not shown) [Compound 83] was tested, and the “Plant response rating, Morningglory” value [1, 21] was 0, the “Plant response rating, Morningglory” value [1, 22] was 0 and the “Plant response rating (0 to 100), Morningglory” value ([1]; preemergence, Rate 500 g/ha) was 0. For the same molecule, the “Plant response rating, Morningglory” value [1, 23] was 0, the “Plant response rating, Crabgrass” value [2, 21] was 100 and the “Plant response rating, Crabgrass” value [2, 22] was 100. For the same molecule, the “Plant response rating (0 to 100), Crabgrass” value ([2]; preemergence, Rate 250 g/ha) was 100, the “Plant response rating (0 to 100), Crabgrass” value ([2]; preemergence, Rate 500 g/ha) was 100 and the “Plant response rating, Ragweed, Common” value [3, 22] was 0. For the same molecule, the “Plant response rating (0 to 100), Ragweed, Common” value ([3]; preemergence, Rate 500 g/ha) was 100, the “Plant response rating, Ragweed, Common” value [3, 23] was 0 and the “Plant response rating, Foxtail, Giant” value [4, 21] was 0. The “Plant response rating, Foxtail, Giant” value [4, 22] was 100, the “Plant response rating (0 to 100), Foxtail, Giant” value ([4]; preemergence, Rate 250 g/ha) was 60 and the “Plant response rating (0 to 100), Foxtail, Giant” value ([4]; preemergence, Rate 500 g/ha) was 0. The “Plant response rating, Cocklebur” value [5, 21] was 0, the “Plant response rating, Cocklebur” value [5, 22] was 0 and the “Plant response rating (0 to 100), Cocklebur” value ([5]; preemergence, Rate 250 g/ha) was 30. The “Plant response rating (0 to 100), Cocklebur” value ([5]; preemergence, Rate 500 g/ha) was 0, the “Plant response rating, Goosegrass” value [6, 21] was 100 and the “Plant response rating, Goosegrass” value [6, 22] was 100. The “Plant response rating (0 to 100), Goosegrass” value ([6]; preemergence, Rate 250 g/ha) was 100, the “Plant response rating (0 to 100), Goosegrass” value ([6]; preemergence, Rate 500 g/ha) was 100 and the “Plant response rating, Bermudagrass” value [7, 21] was 100. The “Plant response rating, Bermudagrass” value [7, 22] was 100, the “Plant response rating (0 to 100 where 0 is no effect and 100 is complete control), Bermudagrass” value ([7]; preemergence, Rate 250 g/ha) was 100 and the “Plant response rating (0 to 100 where 0 is no effect and 100 is complete control), Bermudagrass” value ([7]; preemergence, Rate 500 g/ha) was 100. For the same molecule, the “Plant response rating, Sunflower” value (Sunflower [8]; [22]) was 30, the “Plant response rating, Velvetleaf” value [9, 22] was 30 and the “Plant response rating (0 to 100), Velvetleaf” value ([9]; preemergence, Rate 500 g/ha) was 40. For the same molecule, the “Plant response rating, Velvetleaf” value [9, 23] was 0, the “Plant response rating, Surinam grass” value [10, 21] was 40 and the “Plant response rating, Surinam grass” value [10, 22] was 50. The “Plant response rating (0 to 100), Surinam grass” value ([10]; preemergence, Rate 250 g/ha) was 90, the “Plant response rating (0 to 100), Surinam grass” value ([10]; preemergence, Rate 500 g/ha) was 100 and the “Plant response rating (0 to 100), Sunflower” value (Sunflower [11]; Rate 500 g/ha) was 70. For the same molecule, the “Plant response rating, Lambsquarters” value [12, 24] was 100, the “Plant response rating, Lambsquarters” value [12, 25] was 100 and the “Plant response rating, Crabgrass” value [13, 24] was 100. For the same molecule, the “Plant response rating, Crabgrass” value [13, 25] was 100, the “Plant response rating, Barnyardgrass” value [14, 24] was 100 and the “Plant response rating, Barnyardgrass” value [14, 25] was 100. The “Plant response rating, Foxtail, Giant” value [15, 24] was 100, the “Plant response rating, Foxtail, Giant” value [15, 25] was 100 and the “Plant response rating, Rice” value (rice (Oryza saliva); [24]) was 100. For the same molecule, the “Plant response rating, Rice” value (rice (Oryza saliva); [25]) was 20, the “Plant response rating, Cocklebur” value [16, 24] was 0 and the “Plant response rating, Cocklebur” value [16, 25] was 0. For the same molecule, the “Plant response rating, Corn” value (corn (Zea mays); [24]) was 20, the “Plant response rating, Corn” value (corn (Zea mays); [25]) was 20 and the “Plant response rating, Velvetleaf” value [17, 24] was 0. The “Plant response rating, Velvetleaf” value [17, 25] was 0, the “Plant response rating, Morningglory” value [18, 25] was 0 and the “Plant response rating, Pigweed” value [19, 24] was 100. For the same molecule, the “Plant response rating, Pigweed” value [19, 25] was 100, the “Plant response rating, Surinam grass” value [20, 24] was 90 and the “Plant response rating, Surinam grass” value [20, 25] was 70.

In the case of `O=C1C(n2ccc(C3CCC3)n2)SCN1c1cccc(OC(F)(F)F)c1` (stereo not shown) [Compound 38], the “Plant response rating, Morningglory” value [1, 26] is reported as 0, the “Plant response rating (0 to 100), Morningglory” value ([1]; preemergence, Rate 250 g/ha) is reported as 0 and the “Plant response rating, Morningglory” value [1, 27] is reported as 0. For the same molecule, the “Plant response rating, Crabgrass” value [2, 26] was 100, the “Plant response rating, Crabgrass” value [2, 21] was 90 and the “Plant response rating (0 to 100), Crabgrass” value ([2]; preemergence, Rate 250 g/ha) was 100. The “Plant response rating, Crabgrass” value [2, 27] was 100, the “Plant response rating, Ragweed, Common” value [3, 26] was 100 and the “Plant response rating, Ragweed, Common” value [3, 21] was 0. The “Plant response rating (0 to 100), Ragweed, Common” value ([3]; preemergence, Rate 250 g/ha) was 40, the “Plant response rating, Ragweed, Common” value [3, 27] was 20 and the “Plant response rating, Foxtail, Giant” value [4, 26] was 100. For the same molecule, the “Plant response rating, Foxtail, Giant” value [4, 21] was 80, the “Plant response rating (0 to 100), Foxtail, Giant” value ([4]; preemergence, Rate 250 g/ha) was 100 and the “Plant response rating, Foxtail, Giant” value [4, 27] was 0. The “Plant response rating, Cocklebur” value [5, 26] was 60, the “Plant response rating, Cocklebur” value [5, 21] was 0 and the “Plant response rating (0 to 100), Cocklebur” value ([5]; preemergence, Rate 250 g/ha) was 20. The “Plant response rating, Cocklebur” value [5, 27] was 0, the “Plant response rating, Goosegrass” value [6, 26] was 100 and the “Plant response rating, Goosegrass” value [6, 21] was 80. The “Plant response rating (0 to 100), Goosegrass” value ([6]; preemergence, Rate 250 g/ha) was 100, the “Plant response rating, Goosegrass” value [6, 27] was 90 and the “Plant response rating, Bermudagrass” value [7, 26] was 100. The “Plant response rating, Bermudagrass” value [7, 21] was 60, the “Plant response rating (0 to 100 where 0 is no effect and 100 is complete control), Bermudagrass” value ([7]; preemergence, Rate 250 g/ha) was 100 and the “Plant response rating, Bermudagrass” value [7, 27] was 90. The “Plant response rating, Sunflower” value (Sunflower [8]; [21]) was 0, the “Plant response rating, Sunflower” value (Sunflower [8]; Rate 500 g/ha, scale 0 to 100) was 60 and the “Plant response rating, Velvetleaf” value [9, 26] was 20. For the same molecule, the “Plant response rating, Velvetleaf” value [9, 21] was 0, the “Plant response rating (0 to 100), Velvetleaf” value ([9]; preemergence, Rate 250 g/ha) was 20 and the “Plant response rating, Velvetleaf” value [9, 27] was 0. For the same molecule, the “Plant response rating, Surinam grass” value [10, 26] was 90, the “Plant response rating, Surinam grass” value [10, 21] was 0 and the “Plant response rating (0 to 100), Surinam grass” value ([10]; preemergence, Rate 250 g/ha) was 0. For the same molecule, the “Plant response rating, Surinam grass” value [10, 27] was 0, the “Plant response rating (0 to 100), Sunflower” value (Sunflower [11]; Rate 250 g/ha) was 60 and the “Plant response rating, Lambsquarters” value [12, 24] was 100. The “Plant response rating, Lambsquarters” value [12, 27] was 100, the “Plant response rating, Crabgrass” value [13, 24] was 100 and the “Plant response rating, Crabgrass” value [13, 27] was 0. The “Plant response rating, Barnyardgrass” value [14, 24] was 100, the “Plant response rating, Barnyardgrass” value [14, 27] was 70 and the “Plant response rating, Foxtail, Giant” value [15, 24] was 100. The “Plant response rating, Foxtail, Giant” value [15, 27] was 0, the “Plant response rating, Rice” value (rice (Oryza saliva); [24]) was 10 and the “Plant response rating, Cocklebur” value [16, 24] was 0. The “Plant response rating, Corn” value (corn (Zea mays); [24]) was 0, the “Plant response rating, Corn” value (corn (Zea mays); [27]) was 0 and the “Plant response rating, Velvetleaf” value [17, 24] was 0. The “Plant response rating, Morningglory” value [18, 24] was 0, the “Plant response rating, Pigweed” value [19, 24] was 100 and the “Plant response rating, Surinam grass” value [20, 24] was 60. The “Plant response rating, Surinam grass” value [20, 27] was 0.
